Measurements from article PMC5974090, “A fluorescence anisotropy assay to discover and characterize ligands targeting the maytansine site of tubulin” (Nature Communications, 2018).
Where two headings read alike, the source gives them in different places.

Key:
tubulin [1] = target: T1, tubulin (Bos taurus, UniProt Q6B856); parameters: method as in Panda et al., Proc Natl Acad Sci USA 95, 9313 (1998); details: exact binding site on tubulin unknown; ref Panda et al., Proc Natl Acad Sci USA 95, 9313 (1998); cited from earlier work
[2] = parameters: method as in Panda et al., Proc Natl Acad Sci USA 95, 9313 (1998); details: ref Panda et al., Proc Natl Acad Sci USA 95, 9313 (1998); cited from earlier work
tubulin [3] = target: T1, tubulin; assay: Fluorescence anisotropy titration of FcMaytansine with tubulin (direct binding); details: 25 °C
Protocol: The binding constant of the fluorescent FcMaytansine probe to tubulin was determined by fluorescence anisotropy titration at 25 °C in black Greiner 384-well, flat-bottom microplates and in a final volume of 50 µL. 10 nM FcMaytansine in assay buffer (15 mM PIPES-KOH, pH 6.8, supplemented with 0.3 mM MgCl2 and 0.2 mM EDTA) was titrated with increasing amounts of tubulin up to 400 nM. The anisotropy and fluorescence values of the free (r = 0.016 ± 0.001, fluorescence = 1 (arbitrary units)) and bound (r = 0.245 ± 0.005, fluorescence = 3.10 ± 0.05 (arbitrary units)) states were determined in the absence and presence of 400 nM tubulin, respectively. The anisotropy was measured using a PHERAstar microplate reader (BMG Labtech) with the fluorescence polarization module. […] The read height and the gain were adjusted automatically. […]
In order to calculate the binding constant of FcMaytansine and one of a non-fluorescent ligand from a competition experiment, the fractional saturation, νb, of FcMaytansine has to be determined. Binding of FcMaytansine to tubulin was measured through changes in its anisotropy. […]
In the simplest case of a fluorescent probe with no quantum yield difference between the bound and the free state, the fraction of bound (νb) and free (νf) fluorophore coincides with the fluorescence fractions for the bound and free fluorophore (Fb and Ff, respectively). […]

cells = test system: cells; parameters: method as in PMID 25826705; details: in vitro cytotoxicity, compound added exogenously; cited from earlier work
[4] = target: maytansine site of tubulin (Bos taurus, UniProt Q6B856); format: binding; details: for Kd: 25 °C, mean ± SEM, n = 3, read-out: Kd from FcMaytansine displacement
Protocol: Vinblastine and colchicine were used as negative controls. […] The mixture was then incubated with an unlabeled competitor at increasing concentrations prior to anisotropy measurements.
Fluorescence anisotropy competition experiments and analyses were performed as previously described[34] with minor modifications. Samples containing 10 nM FcMaytansine and 4 nM tubulin in assay buffer were titrated with increasing amounts of a competitor at 25 °C in black Greiner 384-well, flat-bottom microplates and in a final volume of 50 µL. Fluorescence anisotropy measurements were carried out as described above.
The system was solved using EQUIGRA5[34] using the binding constant of FcMaytansine and a stoichiometry of 1:1 for the tubulin–FcMaytansine complex (EQUIGRA5 can be obtained upon request from Fernando Díaz, fer@cib.csic.es).

tubulin [5] = target: T1, tubulin; parameters: method as in PMID 20937594; details: reported previously; buffer with 100 mM PIPES; read-out: Kd for the tubulin-maytansine interaction; cited from earlier work
human cancer cell lines = test system: human cancer cell lines; parameters: method as in Xu et al. 2011; Rothmeier et al. 2010; Paterson et al. 2003; details: large panel of human cancer cell lines; ref Xu et al. 2011; Rothmeier et al. 2010; Paterson et al. 2003; cited from earlier work
mouse xenograft models = test system: mouse xenograft models; parameters: method as in Xu et al. 2011; Rothmeier et al. 2010; Paterson et al. 2003; details: ref Xu et al. 2011, Rothmeier et al. 2010, Paterson et al. 2003; cited from earlier work
[6] = 10 nM FcMaytansine, 4 nM tubulin
[7] = 10 nM FcMaytansine, 4 nM tubulin, increasing competitor concentrations

maytansine site of tubulin, sequence (P81947 whole entry): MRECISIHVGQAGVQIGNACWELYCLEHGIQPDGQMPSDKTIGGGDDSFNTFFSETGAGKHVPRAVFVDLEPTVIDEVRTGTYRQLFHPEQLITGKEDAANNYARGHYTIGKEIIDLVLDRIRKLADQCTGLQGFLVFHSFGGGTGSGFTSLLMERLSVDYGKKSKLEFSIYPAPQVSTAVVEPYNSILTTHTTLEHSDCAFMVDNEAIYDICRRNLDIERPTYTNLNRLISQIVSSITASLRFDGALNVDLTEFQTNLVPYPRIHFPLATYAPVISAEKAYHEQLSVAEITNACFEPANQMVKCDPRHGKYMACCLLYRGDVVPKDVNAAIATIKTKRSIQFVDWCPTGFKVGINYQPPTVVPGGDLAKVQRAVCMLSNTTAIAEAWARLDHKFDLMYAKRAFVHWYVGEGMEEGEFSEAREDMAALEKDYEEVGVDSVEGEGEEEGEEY
maytansine site of tubulin, sequence (Q6B856 whole entry): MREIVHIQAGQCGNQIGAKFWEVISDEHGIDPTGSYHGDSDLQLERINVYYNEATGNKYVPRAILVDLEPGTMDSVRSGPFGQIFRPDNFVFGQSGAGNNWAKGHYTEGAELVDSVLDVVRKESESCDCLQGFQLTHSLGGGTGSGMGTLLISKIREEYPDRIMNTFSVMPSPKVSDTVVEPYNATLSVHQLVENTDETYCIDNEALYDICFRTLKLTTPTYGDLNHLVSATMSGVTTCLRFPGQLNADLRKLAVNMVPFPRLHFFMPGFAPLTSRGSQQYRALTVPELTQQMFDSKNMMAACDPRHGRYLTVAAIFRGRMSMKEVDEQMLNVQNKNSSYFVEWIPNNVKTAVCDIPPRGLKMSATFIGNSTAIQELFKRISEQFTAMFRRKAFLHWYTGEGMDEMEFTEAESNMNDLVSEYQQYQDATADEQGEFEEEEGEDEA
T1 sequence (Q6B856 whole entry): as above
T1 sequence (P81947 whole entry partner): as the sequence (P81947 whole entry) above

## COc1ccc(C[C@H]2NC(=O)/C=C/C[C@@H]([C@H](C)[C@H]3O[C@@H]3c3ccccc3)OC(=O)[C@H](CC(C)C)OC(=O)C(C)(C)CNC2=O)cc1Cl [Cryptophycin 52]
Tubulin [1]
  Kd: 47 nM
[2]
  IC50: 0.02 nM

## COc1cc2cc(c1Cl)N(C)C(=O)CC(OC(=O)CCCCc1cn(CCCNC(=O)c3ccc(C(=O)O)c(-c4c5ccc(=O)cc-5oc5cc(O)ccc45)c3)nn1)C1(C)OC1C(C)C1CC(O)(NC(=O)O1)C(OC)C=CC=C(C)C2 (centres unmarked) [FcMaytansine]
Tubulin [3]; 10 nM FcMaytansine, tubulin 0 to 400 nM, single binding site model, mean ± SEM, n = 5, read-out: dissociation constant, Kd, for the tubulin-FcMaytansine interaction
  Kd: 6.8 ± 0.8 nM
Tubulin [3]; stoichiometry 1:1, association constant
  binding constant of FcMaytansine to tubulin: 1.6 ± 0.3 × 10^8 M^−1

## COc1cc2cc(c1Cl)N(C)C(=O)CC(OC(=O)C(C)N(C)C(=O)CCSC1CC(=O)N(CC3CCC(C(=O)NCCCCC(N)C(=O)O)CC3)C1=O)C1(C)OC1C(C)C1CC(O)(NC(=O)O1)C(OC)C=CC=C(C)C2 (centres unmarked) [M9]
cells
  fold less potent in cellular assays than S-Me DM1: ~ 450 fold

## C/C=C\C[C@@H](C/C=C\NC(=O)[C@@H](NC(=O)\C=C/C=C\C(C)=C\[C@H](C)[C@@H]1CC=C(OC)C(=O)O1)C(C)(C)C)OC(N)=O [PM060184]
[4]; [6]
  Kd: 111 ± 30 nM
[4]; [7]
  displacement of FcMaytansine from tubulin: fully displaced

## C/C=C/[C@H](O)C(C)(C(=O)OC)[C@@H]1C\C=C/C=C/C=C/c2nc(co2)C(=O)O[C@H](C(C)(C(=O)OC)[C@@H](O)/C=C/C)C\C=C/C=C/C=C/c2nc(co2)C(=O)O1 (some centres unmarked) [disorazole Z]
[4]; times higher Kd than maytansine and spongistatin, rebuttal letter
  binding affinity value relative to maytansine and spongistatin: ~ 100 times

## COc1cc2cc(c1Cl)N(C)C(=O)C[C@H](OC(=O)[C@H](C)N(C)C(C)=O)[C@]1(C)O[C@H]1[C@H](C)[C@@H]1C[C@@](O)(NC(=O)O1)[C@H](OC)/C=C/C=C(\C)C2 [maytansine]
Tubulin [5]
  Kd: ~900 nM

## CC[C@]1(O)C[C@@H]2CN(CCc3c([nH]c4ccccc34)[C@@](C(=O)OC)(c3cc4c(cc3OC)N(C)[C@H]3[C@@](O)(C(=O)OC)[C@H](OC(C)=O)[C@]5(CC)C=CCN6CC[C@]43[C@@H]65)C2)C1 [vinblastine]
[4]
  displacement of FcMaytansine from tubulin: not

## ansamitocin P3
[4]; [7]
  displacement of FcMaytansine from tubulin: fully displaced

## spongistatin-1
[4]; [6]
  Kd: 9.5 ± 1.9 nM
Human cancer cell lines
  antiproliferative activity: single digit picomolar
Mouse xenograft models
  in vivo antitumour activity: antitumour activity
